In US20240287430A1, “Systems and Methods for Cellular Lumen Formation and Cellular Differentiation” (The Regents of the University of California, priority 2021, published 2024):

Experiments:
[1] = tested on: hPSC-derived neural tube (neural folding morphogenesis); assay: Modeling neural tube defects in the stem-cell derived neural tube morphogenesis system; assay type: cell-based, human; settings: for neural apical curvature / neural tissue morphology (thickness, hinges): treated samples vs control samples, ROCK inhibitor 10 μM day 5-8
Protocol: Because animal models are limited in their capacity to explain how human genetics affects neural tube closure, it was tested whether the reproducible human stem-cell system could be used to model neural tube defects (NTDs). This example focuses on various compounds that induce NTDs: ROCK inhibitor, novobiocin, and valproic acid (FIG. 24). […] In turn, ROCK upregulates apical actomyosin contractility in neural cells which leads to apical constriction of the neural plate. Neural plate contraction then drives neural folding. It was thus set out to determine whether apical contractility plays a role during in vitro neural folding. […] The formation of an actomyosin gradient is followed by apical neural contraction which leads to folding.
To perturb ROCK/Shroom3 signaling and apical neural contractility a highly specific molecular inhibitor of ROCK (Y-27632) was applied. […] The effects of novobiocin and valproic acid were also examined. […] It was further concluded that the in vitro lumen model system is suitable for studying how abnormalities in signaling pathways lead to neural tube defects in a human genetic context.
Day 1. Seeding onto micropatterns. hPSCs are released from well-plate surfaces using non-enzymatic agitation following manufacturer's instructions (ReleSR, STEMCELL Technologies, Cambridge, MA). Cells are resuspended as a single-cell suspension at densities of 750K-1M cells/mL in mTeSR1 containing 10 μM ROCK inhibitor Y27632 (Abcam, Cambridge, UK). 200 μL of cell suspension is then pipetted onto prepatterned dishes and allowed to settle for 15 minutes before adding 1 mL of mTeSR1 and allowing cells to settle for 10 additional minutes. Excess media is aspirated, leaving enough liquid to cover patterns and replaced with fresh 2 mL of mTeSR until the following day.
Day 2. Matrigel addition. mTESR1 media is exchanged with a neural induction media containing Matrigel (4%, v/v). Neural induction media is supplemented with 5 μM of TGFβ-inhibitor SB-431542.
Day 3-4. Lumen Formation. Dishes are left unperturbed at day 3 to allow transition into 3D stem-cell tissue containing a single lumen.
Day 5-9. Exposure to Morphogens. Neural induction media is supplemented with 5 ng/ml BMP4 in addition to 5 μM of SB-431542. Media is exchanged daily. Cell fates are observed on day 6 and folding is observed during days 7-9.
All samples were fixed, immunostained and imaged as whole mounts in the culture dish. Samples are fixed in 4% PFA, 1 hr at room temperature (RT), washed three times for 15 min in PBS, and permeabilized in 1.5% Triton-PBS over-night (o/n) at 4 C. The following day, samples are washed in 0.3% Triton, and blocked for 2 hrs RT (10% NGS, 1% BSA, 0.3% Triton-X in PBS). Primary antibodies are used at 1:100-1:200 in blocking solution o/n at 4° C. Next, samples are washed in 0.1% Tween in PBS, and incubated with secondary antibodies 1:500-1:1000 in PBT o/n at 4° C. DAPI and phalloidin are also added at this stage. Finally, samples are washed in PBS for 1 hr, and imaged.
ROCK inhibition is achieved using the small molecule Y-27632 reconstituted in water at a stock concentration of 10 mM. ROCK inhibitor was applied at a concentration of 10 μM (1:1000 dilution) at day 5, together with BMP, and maintained for 72 hrs until the end of the experiment at day 8. Media was changed daily. Control experiments were carried under identical conditions, adding water instead of ROCK inhibitor.

3D hPSC = assay: BMP4 exposure of micropatterned 3D hPSC without neural induction (immunostaining, qPCR); assay type: cell-based, human
From the text: FIG. 9 provides a schematic representing in vitro morphogenesis in three differentiation protocols in accordance with embodiments. (i) Exposure to BMP, without neural induction, results in an amnion-like tissue containing cells from three germ layers without formation of a neural fold. (ii) Neural tube morphogenesis is observed when neural induction is followed by exposure to BMP4. (iii) Homogenous expression of forebrain markers is observed under exposure to neural induction without BMP.
FIG. 10 provides a schematic and results of the experimental timeline for three protocols detailed in FIG. 9. (B) Experimental timeline for the three protocols. Neural induction media includes N2 supplement and TGFβ inhibitor SB-431542 (SB). (C) Vertical sections of immunostained samples from the three differentiation protocols.
FIG. 19 provides a schematic, images, and bar graph of cellular differentiation in the absences of neural induction in which no neural folding is observed, in accordance with embodiments. (A) Experimental timeline for BMP4 exposure without neural induction. (B) Bright field images showing development over 3 days. At day 4, cells migrate away from the micropatterned area. (C) Horizonal and (D) vertical sections of samples at day 3. Micropattern diameter is indicated in microns. Cells close to the glass express mesendoderm markers Brachyury (BRA) and SOX17. In 450 μm patterns, SOX2 is observed at the center of the tissue. Cells at the colony edges and at the top express amniotic ectoderm marker CDX2. A single lumen is maintained and no spontaneous folding is observed. (E) qPCR analysis for differentiation markers as a function of BMP concentration. BMP results in upregulation of the WNT and NODAL pathways, upregulation of mesendoderm markers EOMES/Brachyury/SOX17, amniotic ectoderm marker GATA3, downregulation of ectoderm marker SOX2 and pluripotency marker NANOG. Scale bar 50 μm unless indicated otherwise.
The system was next applied to study which tissues contribute to neural folding. This question has been studied for over a century in animal models, and multiple hypothesis have been developed regarding the mechanical role of the neural tissue, neighboring surface ectoderm and underlying mesoderm. However, the limited accessibility in utero led to inconclusive and often contradictive results. The in vitro system allows to systemically control tissue composition through the choice of small molecules in the culture media (FIGS. 9 & 10). This system allows discernment of the tissues which are necessary and sufficient for neural tube morphogens. […] Mesoderm fates are suppressed by TGFβ inhibition, and only appear if the period of TGFβ inhibition is decreased (FIG. 17). […] It was next examined whether the non-neural ectoderm is required for folding. […]

[2] = ROCK inhibition, Y-27632 10 μM day 5-8, vs control
[3] = as a function of BMP concentration, no neural induction

| Compound | Shroom3 and F-actin localization to the apical neural surface [1, 2] | actin localization to the basal surface of epidermal/neural tissues and the epidermal apical surface [1, 2] | neural folding morphology ([1]; Y-27632 10 μM applied at day 5 together with BMP, maintained 72 hrs until day 8, vs control (water)) | neural apical curvature [1] | neural tissue morphology (thickness, hinges) [1] | cell fates and folding morphogenesis (3D hPSC; addition of BMP4 without neural induction) | qPCR: WNT and NODAL pathways (3D hPSC; [3]) | qPCR: ectoderm marker SOX2 and pluripotency marker NANOG (3D hPSC; [3]) | qPCR: mesendoderm markers EOMES/Brachyury/SOX17, amniotic ectoderm marker GATA3 (3D hPSC; [3]) |
| --- | --- | --- | --- | --- | --- | --- | --- | --- | --- |
| C[C@@H](N)[C@H]1CC[C@H](C(=O)Nc2ccncc2)CC1 [Y-27632] | disrupted | not significantly perturbed | severe folding defects similar to the open book morphology observed in embryonic cranial NTDs | significantly less curved than control samples | thick and flat neural tissue, which lacks neural hinges | – | – | – | – |
| CO[C@@H]1[C@@H](OC(N)=O)[C@@H](O)[C@H](Oc2ccc3c(O)c(NC(=O)c4ccc(O)c(CC=C(C)C)c4)c(=O)oc3c2C)OC1(C)C [novobiocin] | – | – | – | significantly less curved than control samples | thick and flat neural tissue, which lacks neural hinges | – | – | – | – |
| CCCC(CCC)C(=O)O [valproic acid] | – | – | – | significantly less curved than control samples | thick and flat neural tissue, which lacks neural hinges | – | – | – | – |
| BMP4: bone morphogenetic protein 4, morphogen | – | – | – | – | – | mesoderm and ectoderm cell fates, but lack neural tissue and does not exhibit folding | upregulation | downregulation | upregulation |
